# Experimental data as given in patent publication US6903130B1, “Pyrrolidineacetamide derivative alone or in combination for treatment of cns disorders” (UCB S.A., priority 1999, dated 2005).
# Marks after values point to notes of the source that are not given here.
# Tests used:
# sound-sensitive mice = assay: Rotarod test in sound-sensitive mice; conditions: combined treatment with 5.5 mg/kg levetiracetam
# [1] = Plasma and brain levels after oral dosing in sound-sensitive mice; conditions: alone or in combination with levetiracetam
# Method: Male genetically sound-sensitive mice (17-30 g; N=10), derived from a DBA strain originally selected by Dr Lehmann of the Laboratory of Acoustic Physiology (Paris) and bred in the UCB Pharma Sector husbandry unit since 1978, were submitted to the induction of audiogenic seizures. Levetiracetam (5.4 mg/kg) and sodium valproate (166.2 mg/kg) were administered orally, alone or in combination, 60 minutes before the induction of audiogenic seizures. For testing audiogenic seizure, the mice were placed in the cages, one mouse per cage, in the sound-attenuated chamber. After a period of habituation of 30 seconds, the acoustic stimulus (90 dB, 10-20 kHz) was delivered for 30 seconds via the loud speakers. During this interval, the mice were observed and the presence of the 3 phases of the seizure activity, namely wild running, clonic and tonic convulsions, was recorded.
# In all animals, blood samples were collected immediately after the seizure test (I h after dosing) by cardiac puncture under light carbon dioxide anesthesia, into heparinised microtubes. […] Levetiracetam was measured in plasma and brain samples by validated gas chromatography assay with mass detection. With sodium valproate, fluorescence polarization immunoassays were used.
# The mean value plus standard deviation was calculated for plasma and brain concentrations of valproate and levetiracetam, and for the brain/plasma ratio. […]
# [2] = system: diabetic rats (streptozocin-induced diabetic neuropathy); assay: Randall and Selitto test, mechanical hyperalgesia in streptozotocin diabetic rats; assay type: in vivo, rat
# From the text: In order to study the activity of levetiracetam with respect to chronic or neuropathic pain, the Applicant carried out a series of experiments based on the Randall test “A method for measurement of analgesic activity on inflamed tissue; Arch. Int. pharmacodyn., 1957, CXI, No4. P 409-419”. By virtue of this protocol, it was possible to determine the ability of levetiracetam to correct hyperalgesia secondary to induction of a neuropathic problem of metabolic origin in a rodent.
# The diabetic neuropathy thereby induced allowed the correction of the hyperalgesia caused by the use of levetiracetam to be measured.
# The animals used for these experiments were male Sprague-Dawley rats (Charles River, France), weighing 250-280 grams (g), which had undergone induction of diabetes one week after receipt. Male Sprague-Dawley rats (200-220 g) received one interperitoneal injection of streptozocin (75 mg/kg, i.p.) (Zanosar, Upjohn, France) dissolved in distilled water. Hyperglycaemia was confirmed one week after induction by determining the quantity of blood glucose (caudal puncture) using a Dextrostix reactive strip (Ames) read using a calorimeter (Ames Division, Miles Laboratoires, France). Animals with more than 14 millimoles (mM) were considered to be diabetic. The pain thresholds were determined 3 weeks after induction of diabetes.
# This model was used in accordance with the description in COURTEIX et al., “Streptozocin-induced diabetic rats. Behavioural evidence for a model of chronic pain” Pain (1993), vol. 53, p81-88. The study was performed using the following compounds: • […]: (Laboratories UCB), dissolved in distilled water. • CARBAMAZEPINE: (Sigma), dissolved in hydroxy propel methylcellulose.
# As has already been mentioned above, the test explained below was performed to stimulate a reaction in the animal with a mechanical nociceptive stimulus to a hind paw. An increasing pressure was applied using an analgesia meter (Ugo Basile, type 7200), until a cry was emitted which was considered to be the pain threshold, expressed in grams.
# After determining the base thresholds, the animals received the study treatments (vehicle, levetiracetam, 17, 54, 95.2 and 120 mg/kg, carbamazepine, 10 and 30 mg/kg) administered intraperitoneally (i.p.) using the equal block method to avoid any chronobiological influence. The effects of different treatments were thus determined during the same time period. The reaction thresholds were measured 15, 30, 45, 60, 90, 120 and 180 minutes (min) after administration. All of the experiments were performed blind with 8 different animals per treatment.
# The results are expressed as means±standard error of mean (S.E.M.).
# The dose which could overcome 50% of the hyperalgesia induced by diabetes was calculated as the “anti-hyperalgesic dose effective 50”.
# Statistical comparison was carried out by means of a two-way analysis of variance followed by Fischer's PLSD multiple comparison test to analyze the temporal effect.
# epilepsy = conditions: in vivo; cited from earlier work
compound,measurement,setting,value
CNC1=Nc2ccc(Cl)cc2C(c2ccccc2)=[N+]([O-])C1 [chlordiazepoxide],impairment of rotarod performance under combined treatment (in words),sound-sensitive mice,not affected
"CCC1(c2ccccc2)C(=O)NC(=O)NC1=O [phenobarbital, reference compound]",plasma concentrations and brain/plasma ratio alone vs in combination with levetiracetam (in words),[1],unchanged
same,impairment of rotarod performance under combined treatment (in words),sound-sensitive mice,not affected
"NC(=O)N1c2ccccc2C=Cc2ccccc21 [Carbamazepine, reference compound]",vocalization threshold,"[2]; carbamazepine 10 mg/kg i.p. group, before diabetes (baseline), mean (SEM)",300.9 (12.31) g
same,vocalization threshold,"[2]; carbamazepine 10 mg/kg i.p., 15 min after injection",217.5 g
same,vocalization threshold,"[2]; carbamazepine 10 mg/kg i.p., 30 min after injection",333.8 (14.66)* g
same,vocalization threshold,"[2]; carbamazepine 10 mg/kg i.p., 45 min after injection",273.8 g
same,vocalization threshold,"[2]; carbamazepine 10 mg/kg i.p., 60 min after injection",206.3 (10.51)* g
same,vocalization threshold,"[2]; carbamazepine 10 mg/kg i.p., 90 min after injection",187.5 (8.02) g
same,vocalization threshold,"[2]; carbamazepine 10 mg/kg i.p., 120 min after injection",174.4 (3.95) g
same,vocalization threshold,"[2]; carbamazepine 10 mg/kg i.p., 180 min after injection",174.4 (3.95) g
same,vocalization threshold,"[2]; carbamazepine 10 mg/kg i.p., after diabetes, 0 min (base threshold)",170.6 (5.26) g
same,vocalization threshold,"[2]; carbamazepine 30 mg/kg i.p. group, before diabetes (baseline), mean (SEM)",280.3 (9.92) g
same,vocalization threshold,"[2]; carbamazepine 30 mg/kg i.p., 15 min after injection",450.0 g
same,vocalization threshold,"[2]; carbamazepine 30 mg/kg i.p., 30 min after injection",425.6 (39.98)* g
same,vocalization threshold,"[2]; carbamazepine 30 mg/kg i.p., 45 min after injection",311.3 g
same,vocalization threshold,"[2]; carbamazepine 30 mg/kg i.p., 60 min after injection",230.6 (24.86)* g
same,vocalization threshold,"[2]; carbamazepine 30 mg/kg i.p., 90 min after injection",196.9 g
same,vocalization threshold,"[2]; carbamazepine 30 mg/kg i.p., 120 min after injection",174.4 (7.99) g
same,vocalization threshold,"[2]; carbamazepine 30 mg/kg i.p., 180 min after injection",170.6 (6.30) g
same,vocalization threshold,"[2]; carbamazepine 30 mg/kg i.p., after diabetes, 0 min (base threshold)",152.8 (8.01) g
same,spontaneous motor activity (not quantified),"[2]; carbamazepine 30 mg/kg i.p., delayed effect, 30 min after injection",reduction in spontaneous motor activity
same,Effect on diabetic hyperalgesia (in words),"[2]; i.p., diabetic rats",complete reversal of diabetic hyperalgesia for the 2 doses used
O=C1CN=C(c2ccccc2Cl)c2cc([N+](=O)[O-])ccc2N1 [clonazepam],impairment of rotarod performance under combined treatment (in words),sound-sensitive mice,not affected
CC[C@H](C(N)=O)N1CCCC1=O [(R)-(−)-α-ethyl-2-oxo-1-pyrrolidine-acetamide],activity in the treatment of epilepsy (in words),epilepsy,completely devoid of activity
